The target in experiment [1] is T1, 5-hydroxytryptamine receptor 2C (Homo sapiens, UniProt P28335).
T1 sequence (P28335 whole entry): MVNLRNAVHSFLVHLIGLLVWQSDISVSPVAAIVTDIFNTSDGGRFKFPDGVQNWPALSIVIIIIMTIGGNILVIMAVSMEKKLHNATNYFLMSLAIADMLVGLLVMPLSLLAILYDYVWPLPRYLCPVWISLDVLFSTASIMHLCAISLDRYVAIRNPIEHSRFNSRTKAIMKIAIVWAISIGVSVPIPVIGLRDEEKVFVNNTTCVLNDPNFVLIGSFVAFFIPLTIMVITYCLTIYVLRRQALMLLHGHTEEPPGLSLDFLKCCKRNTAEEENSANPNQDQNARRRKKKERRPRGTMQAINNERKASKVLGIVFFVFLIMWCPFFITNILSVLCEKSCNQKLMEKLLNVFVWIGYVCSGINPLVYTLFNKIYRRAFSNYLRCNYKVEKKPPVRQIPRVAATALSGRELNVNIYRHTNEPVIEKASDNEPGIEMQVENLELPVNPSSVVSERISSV
Kind of experiment: Binding affinity to 5-HT2C receptor (unknown origin) incubated for 1 hr by radioligand binding assay.

The target of experiment [2] is 5-hydroxytryptamine receptor 7 (Homo sapiens, UniProt P34969). Kind of experiment: Displacement of [3H]-5-CT from human 5-HT7B receptor expressed in HEK293 cells incubated for 1 hr by radioligand binding assay. The format is cell-based. On the technique in general: Loss of bound radioactivity is the signal in a displacement assay; it reports binding, not function.
Sequence of 5-hydroxytryptamine receptor 7 (P34969 whole entry): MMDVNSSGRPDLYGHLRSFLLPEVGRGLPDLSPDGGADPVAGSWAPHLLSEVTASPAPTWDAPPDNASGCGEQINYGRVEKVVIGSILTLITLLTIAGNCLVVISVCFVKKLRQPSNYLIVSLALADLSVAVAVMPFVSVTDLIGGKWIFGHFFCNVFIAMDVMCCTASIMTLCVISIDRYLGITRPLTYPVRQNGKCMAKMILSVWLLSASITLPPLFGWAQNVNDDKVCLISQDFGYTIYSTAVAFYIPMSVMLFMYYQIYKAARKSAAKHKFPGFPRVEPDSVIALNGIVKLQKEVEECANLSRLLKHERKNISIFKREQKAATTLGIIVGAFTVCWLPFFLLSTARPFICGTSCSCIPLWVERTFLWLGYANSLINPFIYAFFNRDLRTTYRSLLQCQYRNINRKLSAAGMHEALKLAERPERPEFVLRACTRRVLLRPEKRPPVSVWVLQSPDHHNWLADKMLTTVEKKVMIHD

The target in experiment [3] is 5-hydroxytryptamine receptor 2B (Homo sapiens, UniProt P41595). Briefly: Binding affinity to 5-HT2B receptor (unknown origin) incubated for 1 hr by radioligand binding assay.
Sequence of 5-hydroxytryptamine receptor 2B (P41595 whole entry): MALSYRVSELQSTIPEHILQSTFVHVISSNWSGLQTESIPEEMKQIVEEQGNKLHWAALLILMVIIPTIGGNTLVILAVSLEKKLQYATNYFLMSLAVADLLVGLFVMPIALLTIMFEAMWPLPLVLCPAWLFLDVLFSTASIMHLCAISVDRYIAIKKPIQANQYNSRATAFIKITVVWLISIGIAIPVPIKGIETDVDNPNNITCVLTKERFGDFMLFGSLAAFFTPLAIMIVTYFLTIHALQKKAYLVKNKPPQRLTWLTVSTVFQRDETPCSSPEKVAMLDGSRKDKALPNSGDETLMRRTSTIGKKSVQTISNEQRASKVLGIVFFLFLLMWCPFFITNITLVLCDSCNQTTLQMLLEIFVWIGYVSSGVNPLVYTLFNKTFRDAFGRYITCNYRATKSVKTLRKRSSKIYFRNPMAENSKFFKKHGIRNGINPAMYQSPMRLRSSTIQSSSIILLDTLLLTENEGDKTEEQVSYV
Experiment [4] concerns the target T2, Alpha-1A adrenergic receptor (Homo sapiens, UniProt P35348).
T2 sequence (P35348 whole entry): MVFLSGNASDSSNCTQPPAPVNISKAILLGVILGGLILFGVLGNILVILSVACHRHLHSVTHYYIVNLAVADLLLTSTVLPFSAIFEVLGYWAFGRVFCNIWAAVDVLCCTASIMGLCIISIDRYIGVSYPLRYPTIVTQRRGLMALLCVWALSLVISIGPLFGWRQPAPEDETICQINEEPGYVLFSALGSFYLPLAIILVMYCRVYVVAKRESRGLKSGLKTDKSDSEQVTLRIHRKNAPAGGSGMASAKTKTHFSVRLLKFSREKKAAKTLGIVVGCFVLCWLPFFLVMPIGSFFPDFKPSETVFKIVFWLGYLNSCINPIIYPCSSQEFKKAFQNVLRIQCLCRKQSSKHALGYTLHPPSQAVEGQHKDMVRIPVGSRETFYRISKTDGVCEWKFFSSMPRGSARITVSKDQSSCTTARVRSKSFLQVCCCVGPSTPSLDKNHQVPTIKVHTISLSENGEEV
Kind of experiment: Displacement of [3H]prazosin from alpha-1A adrenergic receptor (unknown origin).

For experiment [5], the target named is 5-hydroxytryptamine receptor 2A (Homo sapiens, UniProt P28223). Kind of experiment: Displacement of [3H]ketanserin from human 5-HT2A receptor expressed in CHO-K1 cells incubated for 1 hr by radioligand binding assay. It is filed as cell-based.
Sequence of 5-hydroxytryptamine receptor 2A (P28223 whole entry): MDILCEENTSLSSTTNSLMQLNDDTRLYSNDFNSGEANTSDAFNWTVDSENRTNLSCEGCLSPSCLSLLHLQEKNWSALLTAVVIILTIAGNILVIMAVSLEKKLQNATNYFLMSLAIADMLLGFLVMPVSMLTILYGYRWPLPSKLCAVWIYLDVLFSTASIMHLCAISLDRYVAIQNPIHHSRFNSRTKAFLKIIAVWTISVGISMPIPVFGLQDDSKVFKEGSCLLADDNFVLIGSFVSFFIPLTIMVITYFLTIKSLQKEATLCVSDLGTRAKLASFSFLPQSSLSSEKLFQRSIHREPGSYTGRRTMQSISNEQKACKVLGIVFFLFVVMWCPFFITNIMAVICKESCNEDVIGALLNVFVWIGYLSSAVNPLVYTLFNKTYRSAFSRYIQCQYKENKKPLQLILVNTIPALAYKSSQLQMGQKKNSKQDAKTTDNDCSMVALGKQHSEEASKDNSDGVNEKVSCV
Experiment [6] addresses T3, Alpha-2A adrenergic receptor (Homo sapiens, UniProt P08913).
T3 sequence (P08913 whole entry): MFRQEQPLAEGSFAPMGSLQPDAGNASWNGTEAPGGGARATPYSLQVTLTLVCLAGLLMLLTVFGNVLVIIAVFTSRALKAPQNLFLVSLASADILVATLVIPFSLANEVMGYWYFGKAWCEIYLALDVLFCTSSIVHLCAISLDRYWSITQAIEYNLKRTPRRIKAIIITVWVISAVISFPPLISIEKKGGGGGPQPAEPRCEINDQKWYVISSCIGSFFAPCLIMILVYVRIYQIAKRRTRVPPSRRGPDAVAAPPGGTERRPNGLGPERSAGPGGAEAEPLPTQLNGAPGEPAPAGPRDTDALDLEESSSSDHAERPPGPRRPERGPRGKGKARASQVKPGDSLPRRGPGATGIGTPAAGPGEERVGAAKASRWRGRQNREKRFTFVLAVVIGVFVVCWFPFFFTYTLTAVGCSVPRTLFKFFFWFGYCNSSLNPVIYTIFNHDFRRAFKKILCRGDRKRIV
Kind of experiment: Displacement of [3H]RX821002 from alpha-2A adrenergic receptor (unknown origin).

Experiment [7] deals with T4, 5-hydroxytryptamine receptor 1A (Homo sapiens, UniProt P08908).
T4 sequence (P08908 whole entry): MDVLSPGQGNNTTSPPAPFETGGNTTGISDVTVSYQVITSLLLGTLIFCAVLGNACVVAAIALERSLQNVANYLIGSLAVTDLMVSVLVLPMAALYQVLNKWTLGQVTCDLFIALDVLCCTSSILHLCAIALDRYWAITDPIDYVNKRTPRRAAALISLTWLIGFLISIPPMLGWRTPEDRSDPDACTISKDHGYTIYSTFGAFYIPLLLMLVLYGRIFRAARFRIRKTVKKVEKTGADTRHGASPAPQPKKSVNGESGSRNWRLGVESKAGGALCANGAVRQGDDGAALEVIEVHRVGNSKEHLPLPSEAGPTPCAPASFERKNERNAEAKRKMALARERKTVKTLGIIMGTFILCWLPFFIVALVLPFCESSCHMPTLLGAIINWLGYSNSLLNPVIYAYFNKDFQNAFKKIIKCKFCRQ
Kind of experiment: Displacement of [3H]-8-OH-DPAT from human 5-HT1A receptor expressed in HEK293 cells incubated for 1 hr by radioligand binding assay. It is filed as cell-based.

Experiment [8] concerns the target 5-hydroxytryptamine receptor 6 (Homo sapiens, UniProt P50406). Kind of experiment: Displacement of [3H]LSD from human 5-HT6 receptor expressed in HEK293 cells incubated for 1 hr by radioligand binding assay. The format is cell-based.

Each structure is given as a SMILES string.

Sequence of 5-hydroxytryptamine receptor 6 (P50406 whole entry): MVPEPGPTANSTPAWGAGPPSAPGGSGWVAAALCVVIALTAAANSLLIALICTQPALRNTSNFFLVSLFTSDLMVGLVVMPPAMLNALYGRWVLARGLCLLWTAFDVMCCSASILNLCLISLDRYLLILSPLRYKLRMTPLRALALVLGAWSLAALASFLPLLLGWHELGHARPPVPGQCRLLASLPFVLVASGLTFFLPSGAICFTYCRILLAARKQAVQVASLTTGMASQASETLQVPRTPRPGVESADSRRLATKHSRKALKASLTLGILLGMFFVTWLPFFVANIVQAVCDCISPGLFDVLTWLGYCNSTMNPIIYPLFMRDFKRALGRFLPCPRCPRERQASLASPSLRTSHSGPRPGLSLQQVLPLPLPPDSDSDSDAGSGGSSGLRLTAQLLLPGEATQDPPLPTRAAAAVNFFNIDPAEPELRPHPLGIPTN

As a reminder, the Ki is the equilibrium dissociation constant of an inhibitor or competing ligand from its target. Read a high Ki as weaker binding. Turning to `C[C@@H]([C@@H](O)c1ccc(O)cc1)N1CCC(Cc2ccccc2)CC1` [(S)-IFENPRODIL], the Ki in experiment [1] is above 10 µM; in experiment [2], above 10 µM; in experiment [3], above 1000 nM; in experiment [4] it was 530 nM; in experiment [5], 369 nM; in experiment [6], 6.1 µM. In addition, the inhibition constant Ki in experiment [7] was above 1000 nM; in experiment [8] it was above 10 µM.

On to `C[C@H]([C@H](O)c1ccc(O)cc1)N1CCC(Cc2ccccc2)CC1`, for which the Ki in experiment [1] was above 10 µM; in experiment [2] it was above 10 µM; in experiment [3], 708 nM; in experiment [4], 370 nM; in experiment [5], 338 nM; in experiment [6] it was 5.5 µM. Besides, the Ki in experiment [7] was above 1000 nM; in experiment [8] it was above 10 µM.

For the compound `C[C@@H]([C@H](O)c1ccc(O)cc1)N1CCC(Cc2ccccc2)CC1` [(R,S)-IFENPRODIL], the Ki was 0.748 µM in experiment [1]; 0.513 µM in experiment [2]; 95 nM in experiment [3]; 140 nM in experiment [4]; 421 nM in experiment [5]; 1.6 µM in experiment [6]. Also, the values for the Ki in experiment [7] and in experiment [8] were above 1000 nM and above 1 µM, respectively.

In the case of `C[C@H]([C@@H](O)c1ccc(O)cc1)N1CCC(Cc2ccccc2)CC1` [(S,R)-IFENPRODIL], the inhibitory constant (Ki) in experiment [1] was above 10 µM; in experiment [2] it was above 10 µM; in experiment [3], 66 nM; in experiment [4], 27 nM; in experiment [5], 510 nM; in experiment [6] it was 2.3 µM. Further, the Ki in experiment [7] was 46 nM; in experiment [8], above 1 µM.

Values taken from ChEMBL document CHEMBL4706656, “Ifenprodil Stereoisomers: Synthesis, Absolute Configuration, and Correlation with Biological Activity” (J Med Chem, 2021).
